Measurements reported in US20070128217A1 (priority 2003, published 2007).

What was measured:
[1] = tested on: control sera (pooled serum of ten healthy LUMC hospital workers; commercial negative donor pooled serum from the Dutch bloodbank); format: binding, human; set-up: Binding of Control serum LUMC to linear peptides / Binding of Control serum Blood-bank to linear peptides / Binding of Control serum LUMC to looped peptides / Binding of Control Serum Blood-Bank to Looped peptides / Binding of Control serum LUMC to linear peptides of the protein M of SARS-CoV Urbani / Binding of Control serum Blood-bank to linear peptides of the protein M of SARS-CoV Urbani / Binding of Control serum LUMC to looped peptides of the protein M of SARS-CoV Urbani / Binding of Control Serum Blood-Bank to Looped peptides of the protein M of SARS-CoV Urbani: unit not given here
[2] = tested on: rabbit serum obtained by immunizing a rabbit with the SARS-CoV strain Frankfurt 1; format: binding; set-up: Binding of a rabbit serum to linear peptides / Binding of a rabbit serum to looped peptides / Rabbit serum linear peptides / Rabbit serum looped peptides / Binding of a rabbit serum to linear peptides of protein N of SARS-CoV Urbani (Rabbit serum linear peptides) / Binding of a rabbit serum to looped/cyclic peptides of protein N of SARS-CoV Urbani (Rabbit serum looped peptides): unit not given here
[3] = tested on: antibodies in sera from SARS patients (sera 1a, 1b, 2, 6, 37, 62, London, SARS-yellow, SARS-green); format: binding, human; set-up: Binding of serum 6 to linear peptides of protein X1 of SARS-CoV Urbani / Binding of serum 37 to linear peptides of protein X1 of SARS-CoV Urbani / Binding of serum 6 to looped/cyclic peptide (PEPSCAN-ELISA) / Binding of serum 37 to looped/cyclic peptide (PEPSCAN-ELISA) / Binding of serum 37 to looped/cyclic peptides of protein X1 of SARS-CoV Urbani / Binding of serum 6 to linear peptides of protein X2 / Binding of serum 37 to linear peptides of protein X2 / Binding of serum 37 to looped/cyclic peptides of protein X2 of SARS-CoV Urbani / Binding of serum 6 to linear peptides of protein M of SARS-CoV Urbani / Binding of serum 37 to linear peptides of protein M of SARS-CoV Urbani / Binding of serum 6 to looped/cyclic peptides of protein M of SARS-CoV Urbani / Binding of serum 37 to looped/cyclic peptides of protein M of SARS-CoV Urbani / Binding of serum 6 to linear peptides of protein X3 of SARS-CoV Urbani / Binding of serum 37 to linear peptides of protein X3 of SARS-CoV Urbani / Binding of serum 37 to looped/cyclic peptides of protein X3 of SARS-CoV Urbani / Binding of serum 6 to linear peptides of protein X4 of SARS-CoV Urbani / Binding of serum 37 to linear peptides of protein X4 of SARS-CoV Urbani / Binding of serum 37 to looped/cyclic peptides of protein X4 of SARS-CoV Urbani / Binding of serum 6 to linear peptides of protein X5 of SARS-CoV Urbani / Binding of serum 37 to linear peptides of protein X5 of SARS-CoV Urbani / Binding of serum 37 to looped/cyclic peptides of protein X5 of SARS-CoV Urbani / Binding of serum 6 to linear peptides of protein N of SARS-CoV Urbani / Binding of serum 37 to linear peptides of protein N of SARS-CoV Urbani / Binding of serum 6 to linear peptide (PEPSCAN-ELISA) / Binding of serum 1a to looped/cyclic peptides of protein N of SARS-CoV Urbani / Binding of serum 1b to looped/cyclic peptides of protein N of SARS-CoV Urbani / Binding of serum 2 to looped/cyclic peptides of protein N of SARS-CoV Urbani / Binding of serum 6 to looped/cyclic peptides of protein N of SARS-CoV Urbani / Binding of serum 37 to looped/cyclic peptides of protein N of SARS-CoV Urbani / Binding of serum 62 to looped/cyclic peptides of protein N of SARS-CoV Urbani / Binding of serum London to looped/cyclic peptides of protein N of SARS-CoV Urbani / Binding of serum SARS-green to looped/cyclic peptides of protein N of SARS-CoV Urbani: unit not given here

## ADNKFALTCTSTHFA
[1]
  Binding of Control Serum Blood-Bank to Looped peptides: 0.7
  Binding of Control serum Blood-bank to linear peptides: 0.8
  Binding of Control serum LUMC to linear peptides: 0.9
  Binding of Control serum LUMC to looped peptides: 0.9
[2]
  Rabbit serum linear peptides: 0.7
  Rabbit serum looped peptides: 0.2

## AEILIIIMRTFRIAI
[1]
  Binding of Control Serum Blood-Bank to Looped peptides of the protein X3 of SARS-CoV Urbani: 0.7
  Binding of Control serum Blood-bank to linear peptides of the protein X3 of SARS-CoV Urbani: 0.7
  Binding of Control serum LUMC to linear peptides of the protein X3 of SARS-CoV Urbani: 0.4
  Binding of Control serum LUMC to looped peptides of the protein X3 of SARS-CoV Urbani: 0.8
[2]
  Rabbit serum linear peptides: 0.3
  Rabbit serum looped peptides: 0.0

## AGHPLGRCDIKDLPK
[1]
  Binding of Control Serum Blood-Bank to Looped peptides of the protein M of SARS-CoV Urbani: 0.9
  Binding of Control serum Blood-bank to linear peptides of the protein M of SARS-CoV Urbani: 1.1
  Binding of Control serum LUMC to linear peptides of the protein M of SARS-CoV Urbani: 0.8
  Binding of Control serum LUMC to looped peptides of the protein M of SARS-CoV Urbani: 0.7
[2]
  Rabbit serum linear peptides: 0.1
  Rabbit serum looped peptides: 0.1

## ANYFVCWHTHNYDYC
[1]
  Binding of Control Serum Blood-Bank to Looped peptides: 0.5
  Binding of Control serum Blood-bank to linear peptides: 0.7
  Binding of Control serum LUMC to linear peptides: 0.7
  Binding of Control serum LUMC to looped peptides: 0.6
[2]
  Binding of a rabbit serum to linear peptides: 0.1
  Binding of a rabbit serum to looped peptides: 0.5

## AQPVKIDNASPASTV
[1]
  Binding of Control Serum Blood-Bank to Looped peptides: 1.0
  Binding of Control serum Blood-bank to linear peptides: 0.7
  Binding of Control serum LUMC to linear peptides: 0.6
  Binding of Control serum LUMC to looped peptides: 1.0
[2]
  Binding of a rabbit serum to linear peptides: 0.1
  Binding of a rabbit serum to looped peptides: 0.5

## ATFFIFNKLVKDPPN
[1]
  Binding of Control Serum Blood-Bank to Looped peptides: 0.8
  Binding of Control serum Blood-bank to linear peptides: 0.5
  Binding of Control serum LUMC to linear peptides: 0.5
  Binding of Control serum LUMC to looped peptides: 0.8
[2]
  Binding of a rabbit serum to linear peptides: 0.1
  Binding of a rabbit serum to looped peptides: 0.6

## CAYCCNIVNVSLVKP
[1]
  Binding of Control Serum Blood-Bank to Looped peptides: 0.9
  Binding of Control serum Blood-bank to linear peptides: 1.1
  Binding of Control serum LUMC to linear peptides: 0.7
  Binding of Control serum LUMC to looped peptides: 0.7
[2]
  Binding of a rabbit serum to linear peptides: 0.6
  Binding of a rabbit serum to looped peptides: 0.2

## CCNIVNVSLVKPTVY
[1]
  Binding of Control Serum Blood-Bank to Looped peptides: 0.4
  Binding of Control serum Blood-bank to linear peptides: 0.7
  Binding of Control serum LUMC to linear peptides: 0.5
  Binding of Control serum LUMC to looped peptides: 0.5
[2]
  Binding of a rabbit serum to linear peptides: 0.6
  Binding of a rabbit serum to looped peptides: 0.0

## CNIVNVSLVKPTVYV
[1]
  Binding of Control Serum Blood-Bank to Looped peptides: 0.6
  Binding of Control serum Blood-bank to linear peptides: 0.7
  Binding of Control serum LUMC to linear peptides: 0.8
  Binding of Control serum LUMC to looped peptides: 0.8
[2]
  Binding of a rabbit serum to linear peptides: 0.1
  Binding of a rabbit serum to looped peptides: 0.5

## CQDPAGGALIARCWY
[1]
  Binding of Control Serum Blood-Bank to Looped peptides: 0.9
  Binding of Control serum Blood-bank to linear peptides: 0.7
  Binding of Control serum LUMC to linear peptides: 0.3
  Binding of Control serum LUMC to looped peptides: 0.7
[2]
  Rabbit serum linear peptides: 0.5
  Rabbit serum looped peptides: 0.6

## IALNKRWQLALYKGF
[3]
  Binding of serum 1a to linear peptides of protein X1 of SARS-CoV Urbani: 0.8
  Binding of serum 1a to looped/cyclic peptide (PEPSCAN-ELISA): 0.5
  Binding of serum 1b to linear peptides of protein X1 of SARS-CoV Urbani: 0.7
  Binding of serum 1b to looped/cyclic peptide (PEPSCAN-ELISA): 0.4
  Binding of serum 2 to linear peptides of protein X1 of SARS-CoV Urbani: 0.6
  Binding of serum 2 to looped/cyclic peptide (PEPSCAN-ELISA): 0.5
  Binding of serum 6 to linear peptides of protein X1 of SARS-CoV Urbani: 0.9
  Binding of serum 6 to looped/cyclic peptide (PEPSCAN-ELISA): 0.4
  Binding of serum 37 to linear peptides of protein X1 of SARS-CoV Urbani: 0.7
  Binding of serum 37 to looped/cyclic peptide (PEPSCAN-ELISA): 0.5
  Binding of serum 62 to linear peptides of protein X1 of SARS-CoV Urbani: 0.7
  Binding of serum 62 to looped/cyclic peptide (PEPSCAN-ELISA): 0.7
  Binding of serum London to linear peptides of protein X1 of SARS-CoV Urbani: 0.3
  Binding of serum London to looped/cyclic peptide (PEPSCAN-ELISA): 0.3
  Binding of serum SARS-green to linear peptides of protein X1 of SARS-CoV Urbani: 0.4
  Binding of serum SARS-green to looped/cyclic peptide (PEPSCAN-ELISA): 0.4
  Binding of serum SARS-yellow to linear peptides of protein X1 of SARS-CoV Urbani: 0.5
  Binding of serum SARS-yellow to looped/cyclic peptide (PEPSCAN-ELISA): 0.6
[2]
  Recognition of the peptide by the rabbit serum: recognized

## KIIALNKRWQLALYK
[3]
  Binding of serum 1a to linear peptides of protein X1 of SARS-CoV Urbani: 0.8
  Binding of serum 1a to looped/cyclic peptide (PEPSCAN-ELISA): 0.7
  Binding of serum 1b to linear peptides of protein X1 of SARS-CoV Urbani: 0.7
  Binding of serum 1b to looped/cyclic peptide (PEPSCAN-ELISA): 0.5
  Binding of serum 2 to linear peptides of protein X1 of SARS-CoV Urbani: 0.7
  Binding of serum 2 to looped/cyclic peptide (PEPSCAN-ELISA): 0.7
  Binding of serum 6 to linear peptides of protein X1 of SARS-CoV Urbani: 1.0
  Binding of serum 6 to looped/cyclic peptide (PEPSCAN-ELISA): 0.8
  Binding of serum 37 to linear peptides of protein X1 of SARS-CoV Urbani: 0.8
  Binding of serum 37 to looped/cyclic peptide (PEPSCAN-ELISA): 0.8
  Binding of serum 62 to linear peptides of protein X1 of SARS-CoV Urbani: 0.8
  Binding of serum 62 to looped/cyclic peptide (PEPSCAN-ELISA): 0.7
  Binding of serum London to linear peptides of protein X1 of SARS-CoV Urbani: 0.4
  Binding of serum London to looped/cyclic peptide (PEPSCAN-ELISA): 0.3
  Binding of serum SARS-green to linear peptides of protein X1 of SARS-CoV Urbani: 0.4
  Binding of serum SARS-green to looped/cyclic peptide (PEPSCAN-ELISA): 0.3
  Binding of serum SARS-yellow to linear peptides of protein X1 of SARS-CoV Urbani: 0.5
  Binding of serum SARS-yellow to looped/cyclic peptide (PEPSCAN-ELISA): 0.5
[2]
  Recognition of the peptide by the rabbit serum: recognized

## RCWLCWKCKSKNPLL
[3]
  Binding of serum 1a to looped/cyclic peptide (PEPSCAN-ELISA): 0.7
  Binding of serum 1b to looped/cyclic peptide (PEPSCAN-ELISA): 0.5
  Binding of serum 2 to looped/cyclic peptide (PEPSCAN-ELISA): 0.7
  Binding of serum 6 to looped/cyclic peptide (PEPSCAN-ELISA): 0.8
  Binding of serum 37 to looped/cyclic peptide (PEPSCAN-ELISA): 0.8
  Binding of serum 62 to looped/cyclic peptide (PEPSCAN-ELISA): 0.7
  Binding of serum London to looped/cyclic peptide (PEPSCAN-ELISA): 0.4
  Binding of serum SARS-green to looped/cyclic peptide (PEPSCAN-ELISA): 0.4
  Binding of serum SARS-yellow to looped/cyclic peptide (PEPSCAN-ELISA): 0.7
  Recognition of the peptide by sera of SARS-CoV infected individuals, and form (linear, looped/cyclic) in which it is recognized: recognized in linear form
[2]
  Binding of a rabbit serum to linear peptides: 0.1
  Binding of a rabbit serum to looped peptides: 0.7
